Experiment [1] addresses T1, PAR-2Mut2 receptor (Homo sapiens, UniProt P55085).
T1 construct: indeed comprising amino acids 43 to 397 of the precursor of human PAR-2; expressed in transfected cells
T1 sequence (P55085 43-397): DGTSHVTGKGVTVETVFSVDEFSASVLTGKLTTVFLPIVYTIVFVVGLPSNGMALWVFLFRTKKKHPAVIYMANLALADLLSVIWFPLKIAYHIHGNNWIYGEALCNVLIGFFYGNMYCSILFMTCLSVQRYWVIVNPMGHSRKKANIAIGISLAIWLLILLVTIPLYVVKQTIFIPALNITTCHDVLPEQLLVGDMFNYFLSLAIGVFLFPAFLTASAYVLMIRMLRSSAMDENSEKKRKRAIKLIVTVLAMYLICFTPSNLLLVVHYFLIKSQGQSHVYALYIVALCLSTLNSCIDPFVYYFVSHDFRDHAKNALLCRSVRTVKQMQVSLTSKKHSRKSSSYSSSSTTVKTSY
The experiment in a line: Calcium release direct measurement (FLIPR), CHO-NFAT-PAR-2Mut2 cells. In kind it is cell-based. As for the experimental part:
(§1) The cells used for these tests were: CHO-NFAT-PAR-2-MUT2, CHO-NFAT-PAR-2-MUT3, CHO-NFAT-PAR2-WT and CHO-NFAT-WT.
(§2) The day before the experiment, the cells, were seeded into 384 well-plate in a medium DMEM glutamax (ref: 61965-026 Invitrogen, fetal calf serum 10% (ref: 10270106 Invitrogen), gentamycin 50 mg/ml 0.25% (ref: 15750-037 Invitrogen) at 25000 cells/well/50 μL.
(§3) The day of the experiment, the medium was discarded (by turning the plate). 50 μl of HBSS (Invitrogen réf: 14025.050), hepes (Invitrogen ref: 15630-05620 mM) were added to each well, HBSS was then discarded by turning the plate. 10 ml of Calcium kit loading solution and 10 ml HBSS, hepes 20 mM and 200 μl probenecid 250 μM were mixed and then 30 μl of this solution was added per well; plates were then incubated during 2 hours at 37° C. 4% CO2. 1.2 μl of a 250 μM compound in 25% DMSO to be tested and 3.8 μl HBSS, hepes 20 mM were added (on the Minitrak Va., Packard), the plates are transferred to the FLIPR and 25 μl 7.2 μM SLIGRL were added.
(§4) The dye is excited with the 488 nm excitation line of the argon laser and emits at 550 nm. The FLIPR quantifies the release of intracellular calcium in real time, the fluorescence is measured during 90 seconds.

Experiment [2] relates to CHO-NFAT cells. Put plainly: Calcium release direct measurement (FLIPR), CHO-NFAT control cells. In kind it is cell-based. As for the experimental part: as §1
The day before the experiment, cells were seeded into 384 well-plate in a complete medium at 25000 cells/well/50 μL.
The day after, the medium was discarded (by turning the plate). 50 μl of HBSS, hepes 20 mM were added to each well, HBSS was then discarded by turning the plate. This was done twice.
10 ml of Calcium kit loading solution (solution prepared as described above) and 10 ml HBSS, hepes 20 mM and 200 μl probenecid 250 μM were mixed, and 30 μl of this solution per well were added, plates were incubated during 2 hours at 37° C. 5% CO2.
1.2 μl of compound to be tested (250 μM, 25% DMSO) and 3.8 μl HBSS, hepes 20 mM were added (on the Minitrak Va.). 25 μl 72 nM Trypsin was then added using the FLIPR.
The fluorescence was measured on the FLIPR as specified above.

For experiment [3], the target named is T1, PAR-2Mut2 receptor. Put plainly: Beta-lactamase reporter assay, CHO-NFAT-PAR-2Mut2 cells. In kind it is cell-based. Particulars: FIG. 6. As for the experimental part:
In a 96-well or 384-well microplate, […] the wild-type PAR-2 receptor (CHO-NFAT-PAR-2WT) or the CHO-NFAT cells expressing the PAR-2Mut2 receptor (CHO-NFAT-PAR-2mut2), in a proportion of 4×10^4 for a 96-well plate or 1×10^4 for a 384-well plate, for 4 hours, at 37° C., in an atmosphere containing 5% CO2 and in a modified Dulbecco medium (Lifetech, Gaithersburg, Md.) containing 100 μg/ml of gentamycin. The cells were placed in the dark for 1 hour at ambient temperature with 12 μM of CCF4-AM (Aurora Biosciences, San Diego, Calif.). The fluorescence was measured with a Fluostar fluorimeter (BMG, Germany). The excitation occurs at 405 nm and the emission is recorded at both 460 and 535 nm. The fluorescence ratio (460 nm/535 nm) is estimated after elimination of the background noise (medium without cells). The ED50 is considered to be the concentration of SLIGRL-NH2 necessary to achieve 50% of the maximum fluorescence ratio.
The CHO-NFAT-beta-lactamase cells stimulated with SLIGRL-NH2 in the medium mentioned above (4×10^4 cells/well) were used as control. All the reagents were added with the activating agent (chemical or referenced compounds), unless otherwise indicated.

The target of the next experiment is T2, PAR-2Mut3 receptor (Homo sapiens, UniProt P55085).
T2 construct: indeed comprising amino acids 57 to 397 of the precursor of human PAR-2; expressed in transfected cells
T2 sequence (P55085 57-397): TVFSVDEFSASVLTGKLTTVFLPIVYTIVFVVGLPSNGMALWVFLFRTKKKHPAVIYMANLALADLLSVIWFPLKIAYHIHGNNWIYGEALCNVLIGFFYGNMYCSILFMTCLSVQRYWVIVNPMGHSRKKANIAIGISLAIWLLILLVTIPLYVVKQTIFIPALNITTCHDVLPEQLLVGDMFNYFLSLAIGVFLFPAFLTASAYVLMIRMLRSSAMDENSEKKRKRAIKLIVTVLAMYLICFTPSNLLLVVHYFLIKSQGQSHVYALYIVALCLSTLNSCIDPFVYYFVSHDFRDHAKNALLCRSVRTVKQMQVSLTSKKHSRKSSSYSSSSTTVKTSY
Put plainly: Calcium release direct measurement (FLIPR), CHO-NFAT-PAR2-Mut3 cells. In kind it is cell-based. As for the experimental part:
as §1, §2, §3, §4

Experiment [4] concerns CHO-NFAT cells. Put plainly: Beta-lactamase reporter assay, CHO-NFAT control cells. The experiment is classed as cell-based.
In experiment [5] the target is T3, wild-type PAR-2 receptor expressed on CHO-NFAT cells (CHO-NFAT-PAR-2WT) (human, UniProt P55085 37-397).
T3 sequence (looked up): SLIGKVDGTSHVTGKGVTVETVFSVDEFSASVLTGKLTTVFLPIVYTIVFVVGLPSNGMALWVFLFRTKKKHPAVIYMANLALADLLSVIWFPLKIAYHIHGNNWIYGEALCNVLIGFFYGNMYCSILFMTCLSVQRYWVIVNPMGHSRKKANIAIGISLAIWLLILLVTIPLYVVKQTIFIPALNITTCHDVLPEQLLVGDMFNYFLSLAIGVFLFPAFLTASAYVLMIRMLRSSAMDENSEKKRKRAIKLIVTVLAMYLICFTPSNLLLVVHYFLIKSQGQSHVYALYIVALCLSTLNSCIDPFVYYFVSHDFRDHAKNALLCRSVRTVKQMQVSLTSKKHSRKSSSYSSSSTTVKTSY
Put plainly: cell-based or functional assay.

Experiment [6] has as its target T4, truncated PAR-2 receptor PAR-2Mut2 expressed on CHO-NFAT cells (CHO-NFAT-PAR-2Mut2) (human, UniProt P55085 43-397).
T4 sequence: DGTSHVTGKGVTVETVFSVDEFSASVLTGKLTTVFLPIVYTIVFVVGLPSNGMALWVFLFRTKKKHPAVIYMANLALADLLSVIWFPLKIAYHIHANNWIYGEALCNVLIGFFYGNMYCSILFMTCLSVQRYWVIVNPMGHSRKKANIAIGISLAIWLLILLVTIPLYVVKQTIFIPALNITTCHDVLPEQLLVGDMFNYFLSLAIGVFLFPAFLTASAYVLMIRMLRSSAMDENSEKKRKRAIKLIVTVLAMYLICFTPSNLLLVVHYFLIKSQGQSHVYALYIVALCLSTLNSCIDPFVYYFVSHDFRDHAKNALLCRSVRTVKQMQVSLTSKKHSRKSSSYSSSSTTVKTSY
Put plainly: cell-based or functional assay.

The source of these data is patent publication US20040082773A1, “Modified PAR receptors, their preparation and their uses for selecting compounds which modulate PAR activity” (Pfizer Inc., priority 2002, published 2004).

Where no end group is shown, it is not given here.

Consider “SLIGRL [SLIGRL-NH2, synthetic ligand (Neosystème)]”, for which the “Fluorescence after stimulation, compared with CHO-PAR2-WT cells” value on PAR-2Mut2 receptor [1] (CHO-NFAT-PAR-2Mut2 cells, SLIGRL-NH2 0.1 μM to 100 μM) was “higher”.
As for trypsin, the “Activation of cells by trypsin (FLIPR calcium release)” value in the experiment with CHO-NFAT cells [2], at PAR-2Mut3 receptor and on PAR-2Mut2 receptor [1] (CHO-NFAT-PAR2-MUT2 cells) was “not activated” in each case. Also, the “Activation of cells by trypsin (beta-lactamase fluorescence)” value at PAR-2Mut2 receptor [3] and with CHO-NFAT cells [4] was “not activated” throughout.
As for SLIGRL-NH2 [SLIGRL-NH2 synthetic ligand], the “ED50 (beta-lactamase reporter, fluorescence ratio 460 nm/535 nM)” value was 10 µM in experiment [5] and 0.2 µM in experiment [6].
